Molecules are shown by their SMILES. Where two headings read alike, the source gives them in different places.

Common to all, as to type: cell-based
One experiment relates to Pseudomonas alcaligenes. Description: Wood preservative efficacy against bacteria and yeasts, tryptose agar plates. On the set-up: key: 0 = growth equal to control, 1 = inhibition, 2 = no growth. To be noted: 100 ppm in tryptose agar. As to the method: Compositions were prepared by dissolving the compounds shown in Table 1 in 50% ethanol and further diluting with sterile distilled water. […] After cooling, the medium was inoculated with the bacteria listed below. After sufficient growth of the untreated cultures, the compounds were evaluated using the following rating system: 0=growth equal to control 1=inhibition of growth by the compound 2=no growth under the influence of the compound. In this Table, the higher numbers are the most preferred species. Pseudomonas alcaligenes (gram neg)

The subject of the next experiment is Bacillus cereus mycoides. On the set-up: scale not given here.
In the next experiment the test system is Pseudomonas aeruginosa. Description: Wood preservative efficacy against bacteria and yeasts, tryptose agar plates. To be noted: 100 ppm in tryptose agar. On the set-up: key: 0 = growth equal to control, 1 = growth inhibited, 2 = no growth. The method, then: Compositions were prepared by dissolving the compounds shown in Table 1 in 50% ethanol and further diluting with sterile distilled water. […] After cooling, the medium was inoculated with the bacteria listed below. After sufficient growth of the untreated cultures, the compounds were evaluated using the following rating system: 0=growth equal to control 1=inhibition of growth by the compound 2=no growth under the influence of the compound. In this Table, the higher numbers are the most preferred species. Pseudomonas aeruginosa (gram neg)

The subject of a further experiment is Debaryomyces hansenii. Described as above. More on the design: key: 0 = growth equal to control, 1 = inhibition, 2 = no growth. The method, then: Compositions were prepared by dissolving the compounds shown in Table 1 in 50% ethanol and further diluting with sterile distilled water. […] After cooling, the medium was inoculated with the bacteria listed below. After sufficient growth of the untreated cultures, the compounds were evaluated using the following rating system: 0=growth equal to control 1=inhibition of growth by the compound 2=no growth under the influence of the compound. In this Table, the higher numbers are the most preferred species. Debaryomyces hansenii (yeast)

The subject of the next experiment is Flavobacterium sp. The experiment is described as above. To be noted: 100 ppm in tryptose agar. On the set-up: key: 0 = growth equal to control, 1 = growth inhibited, 2 = no growth. The method, then:
Compositions were prepared by dissolving the compounds shown in Table 1 in 50% ethanol and further diluting with sterile distilled water. […] After cooling, the medium was inoculated with the bacteria listed below. After sufficient growth of the untreated cultures, the compounds were evaluated using the following rating system: 0=growth equal to control 1=inhibition of growth by the compound 2=no growth under the influence of the compound. In this Table, the higher numbers are the most preferred species. Flavobacterium sp. (gram neg)

The next experiment deals with Streptomyces albus. The description is as above. On the set-up: key: 0 = growth equal to control, 1 = inhibition, 2 = no growth. The conditions noted are these: 100 ppm in tryptose agar. As to the method:
Compositions were prepared by dissolving the compounds shown in Table 1 in 50% ethanol and further diluting with sterile distilled water. […] After cooling, the medium was inoculated with the bacteria listed below. After sufficient growth of the untreated cultures, the compounds were evaluated using the following rating system: 0=growth equal to control 1=inhibition of growth by the compound 2=no growth under the influence of the compound. In this Table, the higher numbers are the most preferred species. Streptomyces albus (gram pos)

In another experiment the test system is Enterobacter aerogenes. The experiment is described as above. The conditions noted are these: 100 ppm in tryptose agar. More on the design: key: 0 = growth equal to control, 1 = inhibition, 2 = no growth. As to the method: Compositions were prepared by dissolving the compounds shown in Table 1 in 50% ethanol and further diluting with sterile distilled water. […] After cooling, the medium was inoculated with the bacteria listed below. After sufficient growth of the untreated cultures, the compounds were evaluated using the following rating system: 0=growth equal to control 1=inhibition of growth by the compound 2=no growth under the influence of the compound. In this Table, the higher numbers are the most preferred species. Enterobacter aerogenes (gram neg)

In another experiment the test system is Escherichia coli. Described as above. On the set-up: key: 0 = growth equal to control, 1 = growth inhibited, 2 = no growth. The conditions noted are these: 100 ppm in tryptose agar. As to the method:
Compositions were prepared by dissolving the compounds shown in Table 1 in 50% ethanol and further diluting with sterile distilled water. […] After cooling, the medium was inoculated with the bacteria listed below. After sufficient growth of the untreated cultures, the compounds were evaluated using the following rating system: 0=growth equal to control 1=inhibition of growth by the compound 2=no growth under the influence of the compound. In this Table, the higher numbers are the most preferred species. Escherichia coli ([…])

Turning to `C[S+]1CCON=C1c1c(Cl)cccc1Cl` (stereo not drawn) [Compound 15], in the experiment on Pseudomonas alcaligenes, the “Score of bactericidal activity, P. alcalgenes” value (“Score … P. alcalgenes” for short) is reported as 0. The “Score of bactericidal activity, B. cereus mycoides” value (from here on “Score … B. cereus mycoides”) worked out at 0 in the experiment on Bacillus cereus mycoides (10 ppm in tryptose agar) and 1 with Bacillus cereus mycoides (100 ppm in tryptose agar). Also, the “Score of bactericidal activity, P. aeruginosa” value (shortened to “Score … P. aeruginosa”) in the experiment with Pseudomonas aeruginosa is 0. Also, the “Score of bactericidal activity, D. hansenii” value (shortened to “Score … D. hansenii”) with Debaryomyces hansenii (10 ppm in tryptose agar) was 0; in the experiment with Debaryomyces hansenii (100 ppm in tryptose agar) it was 1. Besides, the “Score of bactericidal activity, Flavobacter” value (“Score … Flavobacter” for short) with Flavobacterium sp. amounted to 0. Moreover, the “Score of bactericidal activity, S. albus” value with Streptomyces albus is reported as 0. The “Score of bactericidal activity, E. aerogenes” value (“Score … E. aerogenes” below) in the experiment with Enterobacter aerogenes came to 0. Further, in the experiment with Escherichia coli, the “Score of bactericidal activity, E. Coli” value was determined as 0.
Take `C[S+]1CCON=C1c1ccc(Cl)cc1Cl` (stereo not drawn) [Compound 2]: the “Score … P. alcalgenes” value in the experiment on Pseudomonas alcaligenes is on record as 0. For the same molecule, the “Score … B. cereus mycoides” value with Bacillus cereus mycoides (10 ppm in tryptose agar) was determined as 0; in the experiment with Bacillus cereus mycoides (100 ppm in tryptose agar), 2. Moreover, in the experiment with Pseudomonas aeruginosa, the “Score … P. aeruginosa” value was 0. Also, the “Score … D. hansenii” value in the experiment on Debaryomyces hansenii (10 ppm in tryptose agar) and in the experiment with Debaryomyces hansenii (100 ppm in tryptose agar) was 2 throughout. For the same molecule, in the experiment on Flavobacterium sp., the “Score … Flavobacter” value stood at 2. In addition, the “Score of bactericidal activity, S. albus” value in the experiment with Streptomyces albus is recorded as 0. Moreover, the “Score … E. aerogenes” value with Enterobacter aerogenes is 0. For the same molecule, the “Score of bactericidal activity, E. Coli” value with Escherichia coli is listed as 0.
Turning to `C[S+]1CCON=C1c1cccc(C(F)(F)F)c1` (stereo not drawn) [Compound 13], in the experiment on Pseudomonas alcaligenes, the “Score … P. alcalgenes” value was 0. For the same molecule, the “Score … B. cereus mycoides” value in the experiment with Bacillus cereus mycoides (10 ppm in tryptose agar) and in the experiment with Bacillus cereus mycoides (100 ppm in tryptose agar) was 2 each time. In addition, the “Score … P. aeruginosa” value in the experiment with Pseudomonas aeruginosa came out at 0. Also, the “Score … D. hansenii” value in the experiment with Debaryomyces hansenii (10 ppm in tryptose agar) and in the experiment with Debaryomyces hansenii (100 ppm in tryptose agar) was 2 throughout. In addition, the “Score … Flavobacter” value with Flavobacterium sp. was determined as 2. The “Score of bactericidal activity, S. albus” value with Streptomyces albus was determined as 2. Further, in the experiment with Enterobacter aerogenes, the “Score … E. aerogenes” value worked out at 0. Moreover, the “Score of bactericidal activity, E. Coli” value in the experiment with Escherichia coli is 2.
